# Square brackets hold non-standard residues; d marks the D form. Ends that are not written are not given here. * marks the point of attachment. FITC = O=C1OC2(c3ccc(O)cc3Oc3cc(O)ccc32)c2ccc(NC(=S)*)cc21; Dnp = O=[N+]([O-])c1ccc(*)c([N+](=O)[O-])c1; βAla = NCCC(=O)O
# Key:
# Format in all cases: biochemical
# subtilisin [1] = assay: Subtilisin cleavage of particles for detecting enzyme activity, fluorescence change (Example 1); details: for Fluorescence value (changed amount): subtilisin 10 units, 1 mg particle, difference 20 minutes after adding sample solution vs before, excitation 485 nm, fluorescence 535 nm
# Procedure: To each 1 mg of the particle for detecting the enzyme activity of the samples 1 to 8, 190 μL of 20 mM Tris-HCl buffer (pH 8.0, 100 mM NaCl, 50 mM CaCl2) containing 0.01% Tween 20 was added, to which 10 μL of subtilisin aqueous solution (10 units) as a sample solution was added. Every measurement time, 10 μL of the sample was taken and 190 μL of the buffer was added, the mixture was transferred to a 96-well plate, and fluorescence values were measured (measurement time: 0.1 seconds) using Wallac 1420 ARVO sx plate reader manufactured by PerkinElmer. A changed amount (difference between the fluorescence value 20 minutes after adding the sample solution and the fluorescence value before adding the sample solution) of the fluorescence value 20 minutes after adding the sample solution is shown in the column on the right in Table 1 (excitation wavelength: 485 nm, fluorescence wavelength: 535 nm).
# trypsin [2] = assay: Trypsin cleavage of particles for detecting enzyme activity, fluorescence change (Example 2); details: trypsin 100 units, 1 mg particle, difference 60 minutes after adding sample solution vs before; excitation 485 nm, fluorescence 535 nm
# Procedure: To each 1 mg of the particle for detecting the enzyme activity of the samples 9 to 21, 190 μL of 20 mM Tris-HCl buffer (pH 8.0, 100 mM NaCl, 50 mM CaCl2) containing 0.01% Tween 20 was added, to which […] of trypsin aqueous solution (100 units) as the sample solution was added. Every measurement time, 10 μL of the sample was taken and 190 μL of the buffer was added, the mixture was transferred to the 96-well plate, and fluorescence values were measured (measurement time: 0.1 seconds) using Wallac 1420 ARVO sx plate reader manufactured by PerkinElmer. The changed amount (difference between the fluorescence value 60 minutes after adding the sample solution and the fluorescence value before adding the sample solution) of the fluorescence value 60 minutes after adding the sample solution is shown in the column on the right in Table 2 (excitation wavelength: 485 nm, fluorescence wavelength: 535 nm).
# subtilisin [3] = assay: Subtilisin cleavage of particles, fluorescence change (Example 3); details: subtilisin 10 units, 1 mg particle, difference 60 minutes after adding sample solution vs before; excitation 485 nm, fluorescence 535 nm
# Procedure: (§1) To each 1 mg of the particle for detecting the enzyme activity of the samples 22 to 25, 190 μL of 20 mM Tris-HCl buffer (pH 8.0, 100 mM NaCl, 50 mM CaCl2) containing 0.01% Tween 20 was added, to which 10 μL of elastase aqueous solution (10 units), 10 μL of trypsin aqueous solution (10 units) and 10 μL of subtilisin aqueous solution (10 units) as the sample solution was added. Every measurement time, 10 μL of the sample was taken and 190 μL of the buffer was added, the mixture was transferred to the 96-well plate, and fluorescence values were measured (measurement time: 0.1 seconds) using Wallac 1420 ARVO sx plate reader manufactured by PerkinElmer. The changed amount (difference between the fluorescence value 60 minutes after adding the sample solution and the fluorescence value before adding the sample solution) of the fluorescence value […] the sample solution is shown in the column on the right in Table 3 (excitation wavelength: 485 nm, fluorescence wavelength: 535 nm).
# elastase = assay: Elastase cleavage of particles, fluorescence change (Example 3); details: for Fluorescence value Elastase (changed amount): elastase 10 units, 1 mg particle, difference 60 minutes after adding sample solution vs before, excitation 485 nm, fluorescence 535 nm
# Procedure: as §1
# trypsin [4] = assay: Trypsin cleavage of particles, fluorescence change (Example 3); details: for Fluorescence value Trypsin (changed amount): trypsin 10 units, 1 mg particle, difference 60 minutes after adding sample solution vs before, excitation 485 nm, fluorescence 535 nm
# Procedure: as §1
substance,measurement,setting,value
"Sample 1: PEGA resin particle bearing FITC-β-Ala-Pro-Leu-Gly-Lys, Dnp quencher on lysine ({FITC}-[βAla]PLGK(Dnp); also: attached to PEGA resin particle)",Fluorescence value (changed amount),subtilisin [1],14.8
same,"difference in the changed amount of the fluorescence values, sample 1 (highest activity) vs sample 8 (lowest activity)","subtilisin [1]; subtilisin, 20 minutes",≥ 10 times
"Sample 2: PEGA resin particle bearing FITC-β-Ala-Ala-Pro-Ala-Lys, Dnp quencher on lysine ({FITC}-[βAla]APAK(Dnp); also: attached to PEGA resin particle)",Fluorescence value (changed amount),subtilisin [1],7.9
"Sample 3: PEGA resin particle bearing FITC-β-Ala-Ala-Pro-Val-Lys, Dnp quencher on lysine ({FITC}-[βAla]APVK(Dnp); also: attached to PEGA resin particle)",Fluorescence value (changed amount),subtilisin [1],1.2
"Sample 10: PEGA resin particle bearing FITC-β-Ala-Asp-Gly-Arg-Lys, Dnp quencher on lysine ({FITC}-[βAla]DGRK(Dnp); also: attached to PEGA resin particle)",Fluorescence value (changed amount),trypsin [2],57
"Sample 11: PEGA resin particle bearing FITC-β-Ala-Pro-Arg-Gly-Lys, Dnp quencher on lysine ({FITC}-[βAla]PRGK(Dnp); also: attached to PEGA resin particle)",Fluorescence value (changed amount),trypsin [2],51
"Sample 12: PEGA resin particle bearing FITC-β-Ala-His-Glu-Lys-Lys, Dnp quencher on lysine ({FITC}-[βAla]HEKK(Dnp); also: attached to PEGA resin particle)",Fluorescence value (changed amount),trypsin [2],45
"Sample 13: PEGA resin particle bearing FITC-β-Ala-Ser-Ala-Arg-Lys, Dnp quencher on lysine ({FITC}-[βAla]SARK(Dnp); also: attached to PEGA resin particle)",Fluorescence value (changed amount),trypsin [2],24
"Sample 14: PEGA resin particle bearing FITC-β-Ala-Asn-Pro-Arg-Lys, Dnp quencher on lysine ({FITC}-[βAla]NPRK(Dnp); also: attached to PEGA resin particle)",Fluorescence value (changed amount),trypsin [2],18
"Sample 15: PEGA resin particle bearing FITC-β-Ala-Gly-Lys-Arg-Lys, Dnp quencher on lysine ({FITC}-[βAla]GKRK(Dnp); also: attached to PEGA resin particle)",Fluorescence value (changed amount),trypsin [2],18
"Sample 16: PEGA resin particle bearing FITC-β-Ala-Gly-Arg-Arg-Lys, Dnp quencher on lysine ({FITC}-[βAla]GRRK(Dnp); also: attached to PEGA resin particle)",Fluorescence value (changed amount),trypsin [2],14
"Sample 17: PEGA resin particle bearing FITC-β-Ala-Pro-Arg-Leu-Lys, Dnp quencher on lysine ({FITC}-[βAla]PRLK(Dnp); also: attached to PEGA resin particle)",Fluorescence value (changed amount),trypsin [2],10
"Sample 18: PEGA resin particle bearing FITC-β-Ala-Thr-Arg-Val-Lys, Dnp quencher on lysine ({FITC}-[βAla]TRVK(Dnp); also: attached to PEGA resin particle)",Fluorescence value (changed amount),trypsin [2],9
"Sample 19: PEGA resin particle bearing FITC-β-Ala-Phe-Phe-Arg-Lys, Dnp quencher on lysine ({FITC}-[βAla]FFRK(Dnp); also: attached to PEGA resin particle)",Fluorescence value (changed amount),trypsin [2],8
"Sample 20: PEGA resin particle bearing FITC-β-Ala-His-Leu-Lys-Lys, Dnp quencher on lysine ({FITC}-[βAla]HLKK(Dnp); also: attached to PEGA resin particle)",Fluorescence value (changed amount),trypsin [2],7
"Sample 21: PEGA resin particle bearing FITC-β-Ala-Pro-Phe-Arg-Lys, Dnp quencher on lysine ({FITC}-[βAla]PFRK(Dnp); also: attached to PEGA resin particle)",Fluorescence value (changed amount),trypsin [2],3
"Sample 22: PEGA resin particle bearing FITC-β-Ala-Leu-Leu-Glu-Lys, Dnp quencher on lysine ({FITC}-[βAla]LLEK(Dnp); also: attached to PEGA resin particle)",Fluorescence value Subtilisin (changed amount),subtilisin [3],481
same,Fluorescence value Elastase (changed amount),elastase,38
same,fluorescence change by trypsin activity relative to that by subtilisin activity,"trypsin [4]; Table 3 values, same particle",about 1/240
same,Fluorescence value Trypsin (changed amount),trypsin [4],2
"Sample 23: PEGA resin particle bearing FITC-β-Ala-Ala-Pro-Ala-Lys, Dnp quencher on lysine ({FITC}-[βAla]APAK(Dnp); also: attached to PEGA resin particle)",Fluorescence value Subtilisin (changed amount),subtilisin [3],291
same,fluorescence change by elastase activity relative to that by subtilisin activity,"elastase; Table 3 values, same particle",about 2 times
same,Fluorescence value Elastase (changed amount),elastase,582
same,Fluorescence value Trypsin (changed amount),trypsin [4],13
"Sample 24: PEGA resin particle bearing FITC-β-Ala-Asn-Leu-Asp-Lys, Dnp quencher on lysine ({FITC}-[βAla]NLDK(Dnp); also: attached to PEGA resin particle)",Fluorescence value Subtilisin (changed amount),subtilisin [3],446
same,Fluorescence value Elastase (changed amount),elastase,23
same,Fluorescence value Trypsin (changed amount),trypsin [4],5
"Sample 25: PEGA resin particle bearing FITC-β-Ala-Ala-Pro-Leu-Lys, Dnp quencher on lysine ({FITC}-[βAla]APLK(Dnp); also: attached to PEGA resin particle)",Fluorescence value Subtilisin (changed amount),subtilisin [3],428
same,Fluorescence value Elastase (changed amount),elastase,134
same,Fluorescence value Trypsin (changed amount),trypsin [4],11

# Reference: US20090023200A1, “PARTICLE FOR DETECTING ENZYME ACTIVITY, METHOD FOR DETECTING THE ENZYME ACTIVITY AND ENZYME ACTIVITY DETECTION DEVICE BY THE USE THEREOF” (priority 2005, published 2009)
